# Laboratory results published in patent publication US12264156B2, “Compounds and pharmaceutical compositions thereof for the treatment of diseases” (GALAPAGOS NV, priority 2018, dated 2025).
# Key:
# [1] = tested on: LPS triggered IL-10 secretion in monocyte-derived macrophages (MdM); assay: MdM assay: LPS-triggered IL-10 (ELISA); type: cell-based, human; conditions: LPS 200 ng/mL, supernatant after 2 h, maximal fold change vs LPS only
# Method: SIK inhibition inhibits TNFα and increases IL-10 release in LPS triggered monocyte-derived macrophages (MdM) and dendritic […] al. 2012; Sundberg et al. 2014; Ozanne et al. 2015). This assay evaluates illustrative compounds of the invention for their inhibition of LPS-induced TNFα and LPS triggered IL-10 secretion in monocyte-derived macrophages. PBMCs are isolated from human blood samples (buffycoats). The buffy coat is aseptically transferred into a 50 mL Falcon tube, and diluted 1/2 in PBS. Falcon tubes are filled with 20 mL LymphoprepTM, on top of which 25 mL of the buffy coat is carefully added, tubes are centrifuged for 35 min at 400 g in temperature controlled centrifuge, without brake, at 25° C. PBMCs are aspirated from the white interface layer between sample and LymphoprepTM. PBMCs are washed five times in PBS. Cells are resuspended in RPMI 1640 complete medium supplemented with 10% FBS, 1% P/S, and cell density is determined using a hematologic analyzer (Sysmex XS-500i). PBMCs are centrifuged at 300×g for 10 min and resuspended at a density of 1.0*10^7 cells/80 μL Miltenyi buffer (PBS, pH 7.4, 1% FBS, 2 mM EDTA). Starting from this point of the protocol all steps are performed on ice. 20 μL of CD14+ micro-beads are added per 1.0*10^7 cells, the tube is mixed and incubated for 15 min in the fridge at 4° C. Cell suspension volume is adjusted to total volume of 100 mL using Miltenyi buffer, mixed gently and subsequently centrifuged for 10 min at 300×g. Supernantant is discarded and cell pellet is resuspended in 12 mL of Miltenyi buffer. Four LS columns are placed in the MACS Separator (magnet) from Miltenyi Biotec, and are prewet by rinsing with 3 mL of MACS buffer per column. Three mL of cell suspension is added onto the column (max 1*10^8 of labelled cells/column), and columns are subsequently washed 3 times with 3 mL of Miltenyi buffer. The columns are removed from the magnets, and 5 mL of Miltenyi buffer are added to the column to flush out the CD14+ fraction by pushing the plunger into the column. The flushed fractions are collected in a fresh 50 mL Falcon and volume is adjusted to 30 mL using Miltenyi buffer, cells are centrifuged for 10 min at 300×g. The obtained cell pellet is resuspended in 10 mL RPMI w/o FBS, and cell density is determined using a hematologic analyser (Sysmex XS-500i). 100 000 cells are seeded per well of a 96-well plate for differentiation to MdM in RPMI 1640 medium supplemented with 10% FBS, 1% P/S and 100 ng/mL rhM-CSF. On day 5 the medium is refreshed with 100 μL RPMI 1640 medium supplemented with 10% FBS, 1% P/S and 100 ng/mL rhM-CSF. On day 10, MdMs are triggered and compound is added. A compound dilution plate is made in 100% DMSO by 3-fold dilution of 10 mM stock solution. An intermediate dilution plate (10× final concentration) is made by diluting the compound dilution plate 50-fold in RPMI medium. Medium is carefully removed from cell plates using multichannel pipette, and replaced by 80 μL fresh medium. 10 μL of the 10× final concentration compound is added to the cells and incubated for 1 hour at 37° C. before addition of trigger. No trigger conditions/trigger conditions are spiked with equal final DMSO concentrations of 0.2% DMSO. 10 μL of 10×LPS (final conc. 200 ng/mL) solution are added to all wells except for the 'no trigger wells' where 10 μL medium is added. Supernatant is collected after 2 h (IL-10 determination) and after 20 h (TNFα determination) of LPS triggering. […]
# SIK3 = molecular target: T1, SIK3 (Homo sapiens, UniProt Q9Y2K2); assay: ADP-Glo kinase assay, SIK3; type: biochemical; conditions: ADP-Glo SIK kinase assay
# T1 construct: purchased SignalChem S12-11G-100
# Summary of the method: (§1)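 Kinase reactions (enzyme-substrate mix plus ATP) ran 120 min at room temperature for each of SIK3 and SIK2. Signal came from ADP-Glo: unconsumed ATP removed (40 min), ADP reconverted and detected by luciferase/luciferin (30 min), with luminescence tracking kinase activity. 10 μM staurosporine and 1% DMSO (final) served as controls.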
# SIK2 = molecular target: T2, SIK2 (Homo sapiens, UniProt Q9H0K1); assay: ADP-Glo kinase assay, SIK2; type: biochemical; conditions: ADP-Glo SIK kinase assay
# T2 construct: purchased ThermoFisher Scientific PV4792
# Summary of the method: as §1
# SIK1 = molecular target: T3, SIK1 (Homo sapiens, UniProt P57059); assay: ADP-Glo kinase assay, SIK1; type: biochemical; conditions: ADP-Glo SIK kinase assay
# T3 construct: purchased Carna Biosciences 02-131
# Summary of the method: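 Wells with 1% DMSO or 10 μM staurosporine (final) define the control window. The kinase reaction with substrate and ATP runs 120 min at RT, followed by ADP-Glo detection: ATP depletion (40 min) and ADP-derived luminescence (30 min).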
# T2 sequence (Q9H0K1 whole entry): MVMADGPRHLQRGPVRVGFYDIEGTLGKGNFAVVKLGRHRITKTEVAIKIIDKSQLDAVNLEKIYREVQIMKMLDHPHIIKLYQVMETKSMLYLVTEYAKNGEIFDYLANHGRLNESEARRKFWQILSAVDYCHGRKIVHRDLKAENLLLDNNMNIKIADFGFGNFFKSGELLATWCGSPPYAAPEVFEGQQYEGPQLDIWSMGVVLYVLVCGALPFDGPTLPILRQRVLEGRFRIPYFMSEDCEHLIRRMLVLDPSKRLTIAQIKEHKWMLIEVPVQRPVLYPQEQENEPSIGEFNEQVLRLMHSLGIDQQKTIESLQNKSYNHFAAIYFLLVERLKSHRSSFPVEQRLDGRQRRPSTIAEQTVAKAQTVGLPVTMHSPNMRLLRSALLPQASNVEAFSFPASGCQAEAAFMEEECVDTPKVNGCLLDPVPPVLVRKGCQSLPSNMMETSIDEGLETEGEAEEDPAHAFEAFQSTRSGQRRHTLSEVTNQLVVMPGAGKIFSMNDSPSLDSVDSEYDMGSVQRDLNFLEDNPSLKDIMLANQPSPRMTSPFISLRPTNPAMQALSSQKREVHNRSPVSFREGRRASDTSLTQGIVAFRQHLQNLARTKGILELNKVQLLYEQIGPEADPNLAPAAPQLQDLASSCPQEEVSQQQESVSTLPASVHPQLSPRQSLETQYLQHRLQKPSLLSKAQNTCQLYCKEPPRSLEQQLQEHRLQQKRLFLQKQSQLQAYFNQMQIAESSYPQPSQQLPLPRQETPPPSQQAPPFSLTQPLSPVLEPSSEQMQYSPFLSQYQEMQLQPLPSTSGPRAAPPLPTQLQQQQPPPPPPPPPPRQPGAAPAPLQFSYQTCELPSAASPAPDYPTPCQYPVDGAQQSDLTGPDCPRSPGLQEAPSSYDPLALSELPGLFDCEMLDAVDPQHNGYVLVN
# T3 sequence (P57059 whole entry): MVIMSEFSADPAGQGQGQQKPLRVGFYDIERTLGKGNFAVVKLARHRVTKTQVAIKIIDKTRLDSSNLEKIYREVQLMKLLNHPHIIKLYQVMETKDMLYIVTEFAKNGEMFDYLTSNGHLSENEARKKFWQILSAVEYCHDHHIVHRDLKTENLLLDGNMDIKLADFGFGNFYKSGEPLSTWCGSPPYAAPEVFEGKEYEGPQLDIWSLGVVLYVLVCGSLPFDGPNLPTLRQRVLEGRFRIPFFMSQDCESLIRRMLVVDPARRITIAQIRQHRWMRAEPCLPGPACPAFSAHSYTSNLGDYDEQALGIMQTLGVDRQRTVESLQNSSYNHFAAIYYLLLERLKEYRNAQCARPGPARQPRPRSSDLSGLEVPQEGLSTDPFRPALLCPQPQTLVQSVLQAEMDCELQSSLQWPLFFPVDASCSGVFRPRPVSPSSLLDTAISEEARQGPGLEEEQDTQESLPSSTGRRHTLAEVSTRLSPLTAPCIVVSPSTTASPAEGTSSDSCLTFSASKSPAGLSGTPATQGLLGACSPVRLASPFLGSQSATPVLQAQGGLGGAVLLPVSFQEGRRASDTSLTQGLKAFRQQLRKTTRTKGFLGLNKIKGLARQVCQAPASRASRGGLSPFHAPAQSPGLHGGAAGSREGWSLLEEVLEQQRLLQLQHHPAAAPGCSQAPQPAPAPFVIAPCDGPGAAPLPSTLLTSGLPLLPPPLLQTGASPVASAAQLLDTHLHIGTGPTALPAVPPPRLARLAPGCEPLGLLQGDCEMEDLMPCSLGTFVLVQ
# T1 sequence (Q9Y2K2 whole entry): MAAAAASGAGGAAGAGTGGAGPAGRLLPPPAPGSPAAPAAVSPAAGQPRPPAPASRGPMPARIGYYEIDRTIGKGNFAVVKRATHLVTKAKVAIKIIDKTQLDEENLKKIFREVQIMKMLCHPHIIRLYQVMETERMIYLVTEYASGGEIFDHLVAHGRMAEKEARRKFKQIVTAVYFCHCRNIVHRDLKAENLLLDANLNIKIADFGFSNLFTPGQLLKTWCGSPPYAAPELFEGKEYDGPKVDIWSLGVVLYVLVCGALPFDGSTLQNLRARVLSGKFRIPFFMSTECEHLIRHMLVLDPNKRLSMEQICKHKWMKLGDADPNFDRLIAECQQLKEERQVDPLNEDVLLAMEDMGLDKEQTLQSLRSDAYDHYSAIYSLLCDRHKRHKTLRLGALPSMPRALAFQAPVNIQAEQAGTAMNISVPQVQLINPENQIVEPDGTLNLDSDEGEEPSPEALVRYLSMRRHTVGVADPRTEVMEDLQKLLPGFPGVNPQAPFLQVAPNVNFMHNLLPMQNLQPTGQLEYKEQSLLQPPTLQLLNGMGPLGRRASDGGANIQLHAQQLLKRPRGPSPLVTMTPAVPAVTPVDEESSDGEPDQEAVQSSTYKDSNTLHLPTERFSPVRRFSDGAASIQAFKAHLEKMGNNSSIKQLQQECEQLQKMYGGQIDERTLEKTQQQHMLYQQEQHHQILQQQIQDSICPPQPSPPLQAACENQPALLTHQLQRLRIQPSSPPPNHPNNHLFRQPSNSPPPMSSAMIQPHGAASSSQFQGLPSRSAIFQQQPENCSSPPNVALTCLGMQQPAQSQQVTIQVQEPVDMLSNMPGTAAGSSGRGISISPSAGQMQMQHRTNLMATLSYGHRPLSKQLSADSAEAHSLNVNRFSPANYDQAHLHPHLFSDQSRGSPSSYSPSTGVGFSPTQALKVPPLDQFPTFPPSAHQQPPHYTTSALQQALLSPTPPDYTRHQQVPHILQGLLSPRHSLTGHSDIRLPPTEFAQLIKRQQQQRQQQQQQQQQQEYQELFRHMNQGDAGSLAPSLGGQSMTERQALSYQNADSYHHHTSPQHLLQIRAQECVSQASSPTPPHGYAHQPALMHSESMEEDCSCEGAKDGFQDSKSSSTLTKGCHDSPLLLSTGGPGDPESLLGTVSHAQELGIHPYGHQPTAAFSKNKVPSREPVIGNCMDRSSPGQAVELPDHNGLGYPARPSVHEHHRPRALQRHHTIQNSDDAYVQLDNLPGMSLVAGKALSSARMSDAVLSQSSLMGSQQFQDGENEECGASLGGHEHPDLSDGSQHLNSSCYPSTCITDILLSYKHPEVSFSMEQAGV
Compound,IL-10 FCmax median [1],IC50 (SIK3),IC50 (SIK2),IC50 (SIK1)
"COc1cc(-c2cnc3cc(OCCN4CCS(=O)(=O)CC4)ccn23)cc2c1C(=O)N(CC(F)(F)F)CC2 [compound 41, 6-[7-[2-(1,1-dioxo-1,4-thiazinan-4-yl)ethoxy]imidazo[1,2-a]pyridin-3-yl]-8-methoxy-2-(2,2,2-trifluoroethyl)-3,4-dihydroisoquinolin-1-one]",++ (>1.5-4.5),0.01 to 10 nM,0.01 to 10 nM,100 to 500 nM
"COc1cc(-c2cnc3cc(OCC(C)(C)N)ccn23)cc(OC(F)F)c1C(=O)NC1CC1 [compound 104, 4-[7-(2-amino-2-methyl-propoxy)imidazo[1,2-a]pyridin-3-yl]-N-cyclopropyl-2-(difluoromethoxy)-6-methoxy-benzamide]",+ (≤1.5),0.01 to 10 nM,0.01 to 10 nM,100 to 500 nM
"COc1cc(-c2cnc3cc(OCCN(C)C)ccn23)cc(OC(F)F)c1C(=O)NC1CC1 [Cpd 6, N-cyclopropyl-2-(difluoromethoxy)-4-[7-[2-(dimethylamino)ethoxy]imidazo[1,2-a]pyridin-3-yl]-6-methoxy-benzamide]",++ (>1.5-4.5),0.01 to 10 nM,0.01 to 10 nM,100 to 500 nM
"COc1cc(-c2cnc3cc(OC[C@H]4CCCN4C)ccn23)cc(OC(F)F)c1C(=O)NC1CC1 [compound 81, N-cyclopropyl-2-(difluoromethoxy)-6-methoxy-4-[7-[[(2R)-1-methylpyrrolidin-2-yl]methoxy]imidazo[1,2-a]pyridin-3-yl]benzamide]",++ (>1.5-4.5),0.01 to 10 nM,0.01 to 10 nM,100 to 500 nM
"CCOC(=O)C1(F)CCN(CC(O)COc2ccn3c(-c4cc(OC)c(C(=O)NC5CC5)c(OC(F)F)c4)cnc3c2)CC1 (stereo not shown) [compound 384, ethyl 1-[3-[3-[4-(cyclopropylcarbamoyl)-3-(difluoromethoxy)-5-methoxy-phenyl]imidazo[1,2-a]pyridin-7-yl]oxy-2-hydroxy-propyl]-4-fluoro-piperidine-4-carboxylate]",++ (>1.5-4.5),0.01 to 10 nM,0.01 to 10 nM,10 to 100 nM
"COc1cc(-c2cnc3cc(OCC4CN(C)C4)ccn23)cc(OC(F)F)c1C(=O)NC1CC1 [Cpd 14, N-cyclopropyl-2-(difluoromethoxy)-6-methoxy-4-[7-[(1-methylazetidin-3-yl)methoxy]imidazo[1,2-a]pyridin-3-yl]benzamide]",++ (>1.5-4.5),0.01 to 10 nM,0.01 to 10 nM,10 to 100 nM
"CCN(CC)CCOc1ccn2c(-c3cc4c(c(OC)c3)C(=O)N(CC(F)(F)F)CC4)cnc2c1 [compound 128, 6-[7-[2-(diethylamino)ethoxy]imidazo[1,2-a]pyridin-3-yl]-8-methoxy-2-(2,2,2-trifluoroethyl)-3,4-dihydroisoquinolin-1-one]",++ (>1.5-4.5),0.01 to 10 nM,0.01 to 10 nM,100 to 500 nM
"COc1cc(-c2cnc3cc(OCCN4CCCCC4)ccn23)cc2c1C(=O)N(CC(F)(F)F)CC2 [compound 40, 8-methoxy-6-[7-[2-(1-piperidyl)ethoxy]imidazo [1,2-a]pyridin-3-yl]-2-(2,2,2-trifluoroethyl)-3,4-dihydroisoquinolin-1-one]",++ (>1.5-4.5),0.01 to 10 nM,0.01 to 10 nM,> 500 nM
"COc1cc(-c2cnc3cc(OCC4CN(C)CCO4)ccn23)cc2c1C(=O)N(CC(F)(F)F)CC2 (stereo not shown) [compound 127, 8-methoxy-6-[7-[(4-methylmorpholin-2-yl)methoxy]imidazo[1,2-a]pyridin-3-yl]-2-(2,2,2-trifluoroethyl)-3,4-dihydroisoquinolin-1-one]",++ (>1.5-4.5),0.01 to 10 nM,0.01 to 10 nM,100 to 500 nM
"CNc1cc(-c2cnc3cc(OCCN(C)C)ccn23)cc(OC(F)F)c1C(=O)NCC(F)(F)F [Cpd 165, 2-(difluoromethoxy)-4-[7-[2-(dimethylamino)ethoxy]imidazo[1,2-a]pyridin-3-yl]-6-(methylamino)-N-(2,2,2-trifluoroethyl)benzamide]",++ (>1.5-4.5),0.01 to 10 nM,0.01 to 10 nM,100 to 500 nM
"COc1cc(-c2cnc3cc(OC[C@@H]4CN(C)CCO4)ccn23)cc2c1C(=O)N(CC(F)(F)F)CC2 [compound 191, 8-methoxy-6-[7-[[(2S)-4-methylmorpholin-2-yl]methoxy]imidazo [1,2-a]pyridin-3-yl]-2-(2,2,2-trifluoroethyl)-3,4-dihydroisoquinolin-1-one]",++ (>1.5-4.5),0.01 to 10 nM,0.01 to 10 nM,100 to 500 nM
"COc1cc(-c2cnc3cc(OCC(O)CN4CCOCC4)ccn23)cc(OC(F)F)c1C(=O)NC1CC1 (stereo not shown) [Cpd 330, N-cyclopropyl-2-(difluoromethoxy)-4-[7-(2-hydroxy-3-morpholino-propoxy)imidazo[1,2-a]pyridin-3-yl]-6-methoxy-benzamide]",++ (>1.5-4.5),0.01 to 10 nM,0.01 to 10 nM,10 to 100 nM
"COc1cc(-c2cnc3cc(OCCN4CCCC4)ccn23)cc2c1C(=O)N(CC(F)(F)F)CC2 [compound 123, 8-methoxy-6-[7-(2-pyrrolidin-1-ylethoxy)imidazo[1,2-a]pyridin-3-yl]-2-(2,2,2-trifluoroethyl)-3,4-dihydroisoquinolin-1-one]",++ (>1.5-4.5),0.01 to 10 nM,0.01 to 10 nM,> 500 nM
"COc1cc(-c2cnc3cc(OC[C@H]4COCCO4)ccn23)cc2c1C(=O)N(CC(F)(F)F)CC2 [Cpd 86, 6-[7-[[(2R)-1,4-dioxan-2-yl]methoxy]imidazo[1,2-a]pyridin-3-yl]-8-methoxy-2-(2,2,2-trifluoroethyl)-3,4-dihydroisoquinolin-1-one]",++ (>1.5-4.5),0.01 to 10 nM,10 to 100 nM,100 to 500 nM
"COc1cc(-c2cnc3cc(OC(C)C(F)(F)F)ccn23)cc(OC(F)F)c1C(=O)NC1CC1 (stereo not shown) [compound 45, N-cyclopropyl-2-(difluoromethoxy)-6-methoxy-4-[7-(2,2,2-trifluoro-1-methyl-ethoxy)imidazo[1,2-a]pyridin-3-yl]benzamide]",+ (≤1.5),0.01 to 10 nM,10 to 100 nM,100 to 500 nM
"COc1cc(-c2cnc3cc(OC[C@H]4CN(C)CCO4)ccn23)cc2c1C(=O)N(CC(F)(F)F)CC2 [compound 190, 8-methoxy-6-[7-[[(2R)-4-methylmorpholin-2-yl]methoxy]imidazo[1,2-a]pyridin-3-yl]-2-(2,2,2-trifluoroethyl)-3,4-dihydro isoquinolin-1-one]",++ (>1.5-4.5),0.01 to 10 nM,0.01 to 10 nM,100 to 500 nM
